Data from patent publication US5935954A, “Compounds with improved multi-drug resistance activity” (Vertex Pharmaceuticals Incorporated, priority 1997, dated 1999).

biological target: FKBP12 (Homo sapiens, UniProt P62942); experiment: FKBP12 binding assay (inhibition of rotomase activity); assay type: biochemical; conditions: apparent Ki
Text: Preferably, the assay measures inhibition of FKBP12 rotomase activity. Such an assay has also been described by M. W. Harding et al., supra and by J. J. Siekierka et al., supra. In this assay the isomerization of an artificial substrate--N-succinyl-Ala-Ala-Pro-Phe-p-nitroanilide--is followed spectrophotometrically. The assay includes the cis form of the substrate, FKBP12, the inhibitor and chymotrypsin. Chymotrypsin is able to cleave p-nitroanilide from the trans form of the substrate, but not the cis form. Release of p-nitroanilide is measured.
The inhibition of FKBP rotomase activity by the preferred FKBP12 binding compounds present in the compositions of this invention was assayed. In this assay various quantities of FKBP12 binding compound (0nM-10 μM) were added to cis-N-succinyl-Ala-Ala-Pro-Phe-p-nitroanilide in the presence of FKBP12 and chymotrypsin. FKBP12 converts the cis form of the substrate to the trans form. This allows chymotrypsin to cleave p-nitroanilide from the substrate. Release of p-nitroanilide was measured spectrophotometrically. This assay allowed me to measure the change in the first order rate constant of the rotomase activity as a function of FKBP12 binding compound concentration and yielded an estimate of apparent Ki.

Sequence of FKBP12 (P62942 whole entry, species assumed): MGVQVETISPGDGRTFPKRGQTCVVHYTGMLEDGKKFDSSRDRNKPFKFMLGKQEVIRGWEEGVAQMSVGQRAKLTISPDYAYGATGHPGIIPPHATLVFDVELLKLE

| Structure (SMILES) | Ki |
| --- | --- |
| CCOCc1cccc(COCC)c1-c1cncc(C(OC(=O)[C@@H]2CCCCN2C(=O)C(=O)C(C)(C)C)/C(C)=C/c2ccncc2)c1 (some centres unmarked) [Compound 67] | 270 nM |
| CCOCc1cccc(COCC)c1-c1cncc(C(OC(=O)[C@@H]2CCCCN2C(=O)C(=O)C2CCOCC2)/C(C)=C/c2ccncc2)c1 (some centres unmarked) [Compound 68] | > 5000 nM |
| C=CCC/C=C(\c1ccc([C@H](CCN2CCOCC2)OC(=O)[C@@H]2CCCCN2C(=O)C(=O)CC(C)C)s1)C1CCOCC1 [Compound 69] | 745 nM |
| C=CCC/C=C(\c1ccc([C@@H](CCN2CCOCC2)OC(=O)[C@@H]2CCCCN2C(=O)C(=O)C(C)(C)C)s1)C1CCOCC1 [Compound 70] | 45 nM |
| C=CCC/C=C(/c1cccnc1)c1ccc([C@@H](OC(=O)[C@@H]2CCCCN2C(=O)C(=O)CC(C)C)/C(C)=C/C2CCN(C)CC2)s1 [Compound 71] | 364 nM |
| C=CCC/C=C(/c1cccnc1)c1ccc([C@H](OC(=O)[C@@H]2CCCCN2C(=O)C(=O)CC(C)C)/C(C)=C/C2CCN(C)CC2)s1 [Compound 72] | 225 nM |
| CCOCc1cccc(COCC)c1-c1cncc([C@@H](CCN2CCOCC2)OC(=O)[C@@H]2CCCCN2C(=O)C(=O)CC(C)C)c1 [Compound 73] | 718 nM |
| CCCC/C=C(\c1cncc([C@@H](OC(=O)[C@@H]2CCCCN2C(=O)C(=O)C(C)C)/C(C)=C/C2CCN(C)CC2)c1)C1CCCCC1 [Compound 74] | 500 nM |
| CCCC/C=C(\c1cncc([C@H](OC(=O)[C@@H]2CCCCN2C(=O)C(=O)C(C)C)/C(C)=C/C2CCN(C)CC2)c1)C1CCCCC1 [Compound 75] | 188 nM |
| CCOCc1cccc(COCC)c1-c1cncc([C@H](CCN2CCOCC2)OC(=O)[C@@H]2CCCCN2C(=O)C(=O)CC(C)C)c1 [Compound 77] | 2100 nM |
| CCOCc1cccc(COCC)c1-c1cncc([C@@H](CCN2CCOCC2)OC(=O)[C@@H]2CCCCN2C(=O)C(=O)C2(C)CCCCC2)c1 [Compound 78] | 77 nM |
| CCOCc1cccc(COCC)c1-c1cncc([C@H](CCN2CCOCC2)OC(=O)[C@@H]2CCCCN2C(=O)C(=O)C2(C)CCCCC2)c1 [Compound 80] | 230 nM |
| CCOCc1cccc(COCC)c1-c1cncc([C@@H](CCN2CCOCC2)OC(=O)[C@@H]2CCCCN2C(=O)C(=O)C(C)(C)C)c1 [Compound 81] | 189 nM |
| CCOCc1cccc(COCC)c1-c1ccc([C@@H](CCN2CCOCC2)OC(=O)[C@@H]2CCCCN2C(=O)C(=O)CC(C)C)s1 [Compound 83] | 315 nM |
| CCOCc1cccc(COCC)c1-c1ccc([C@H](CCN2CCOCC2)OC(=O)[C@@H]2CCCCN2C(=O)C(=O)CC(C)C)s1 [Compound 84] | 2000 nM |
| C=CCC/C=C(/c1cccnc1)c1ccc([C@@H](CCN2CCOCC2)OC(=O)[C@@H]2CCCCN2C(=O)C(=O)C2(C)CCCCC2)s1 [Compound 85] | 1 nM |
| CCOCc1cc2ccccc2n1-c1cccc([C@@H](CCN2CCOCC2)OC(=O)[C@@H]2CCCCN2C(=O)C(=O)C2(C)CCCCC2)c1 [Compound 86] | 14 nM |
| C=CCC/C=C(\c1ccc([C@H](CCN2CCOCC2)OC(=O)[C@@H]2CCCCN2C(=O)C(=O)C2(C)CCCCC2)s1)C1CCOCC1 [Compound 87] | 2.3 nM |
| CCOc1ccc(OCC)c(-c2cncc([C@H](CCCc3ccccc3)OC(=O)[C@@H]3CCCCN3C(=O)C(=O)c3cc(OC)c(OC)c(OC)c3)c2)c1 [Compound 88] | 64 nM |
| CCC/C=C(/c1cccnc1)c1cccc(C(CCN2CCOCC2)OC(=O)[C@@H]2CCCCN2C(=O)C(=O)C(C)(C)C(C)C)c1 (some centres unmarked) [Compound 92] | 32 nM |
| CCOCc1cccc(COCC)c1-c1ccc([C@@H](CCN2CCOCC2)OC(=O)[C@@H]2CCCCN2C(=O)C(=O)C(C)(C)C(C)C)s1 [Compound 93] | 44 nM |
| CCOCc1cc2ccccc2n1-c1cccc([C@@H](CCN2CCOCC2)OC(=O)[C@@H]2CCCCN2C(=O)C(=O)C(C)(C)C(C)C)c1 [Compound 94] | 16 nM |
| C=CCC/C=C(\c1ccc([C@@H](CCN2CCOCC2)OC(=O)[C@@H]2CCCCN2C(=O)C(=O)C2(O)CCCCC2)s1)C1CCOCC1 [Compound 95] | 14 nM |
| C=CCC/C=C(/c1cccnc1)c1ccc([C@@H](CCN2CCOCC2)OC(=O)[C@@H]2CCCCN2C(=O)C(=O)C2(C)CCCCC2)s1 [Compound 96] | 28 nM |
| CCC/C=C(\c1cncc([C@H](OC(=O)[C@@H]2CCCCN2C(=O)C(=O)C(C)(C)C(C)C)/C(C)=C/c2ccncc2)c1)C1CCCCC1 [Compound 98] | 62 nM |

| Structure (SMILES) | Ki |
| --- | --- |
| C=CCC/C=C(/c1cccnc1)c1ccc([C@H](CCN2CCOCC2)OC(=O)[C@@H]2CCCCN2C(=O)C(=O)c2cc(COC)ccc2C)s1 [Compound 101] | 500 nM |
| CCOCc1cccc(COCC)c1-c1ccc([C@@H](CCN2CCOCC2)OC(=O)[C@@H]2CCCCN2C(=O)C(=O)c2cc(COC)ccc2C)s1 [Compound 102] | 700 nM |
| CCCc1ccc(CCC)n1-c1cccc([C@@H](CCN2CCOCC2)OC(=O)[C@@H]2CCCCN2C(=O)C(=O)C(C)(C)C(C)C)c1 [Compound 103] | 21 nM |
| CCCc1ccc(CCC)n1-c1cccc([C@H](CCN2CCOCC2)OC(=O)[C@@H]2CCCCN2C(=O)C(=O)C(C)(C)C(C)C)c1 [Compound 104] | 870 nM |
| CCCc1ccc(CCC)n1-c1cccc([C@H](OC(=O)[C@@H]2CCCCN2C(=O)C(=O)C(C)(C)C(C)C)/C(C)=C/c2ccncc2)c1 [Compound 106] | 2100 nM |
| CCCc1ccc(CCC)n1-c1cccc(C(OC(=O)[C@@H]2CCCCN2C(=O)C(=O)[C@@H]2CCCC[C@H]2C)/C(C)=C/c2ccncc2)c1 (some centres unmarked) [Compound 108] | 5100 nM |
| CCCc1ccc(CCC)n1-c1cccc(C(OC(=O)[C@@H]2CCCCN2C(=O)C(=O)C(C)(C)C(C)C)/C(C)=C/c2ccncc2)c1 (some centres unmarked) [Compound 109] | > 10000 nM |
| CCC/C(=C/COC)c1cncc([C@H](CCN2CCOCC2)OC(=O)[C@@H]2CCCCN2C(=O)C(=O)C(C)(C)C(C)C)c1 [Compound 114] | 172 nM |
| COC/C=C(\c1cncc([C@@H](CCN2CCOCC2)OC(=O)[C@@H]2CCCCN2C(=O)C(=O)C(C)(C)C(C)C)c1)C(C)C [Compound 115] | 44 nM |
| COC/C=C(\c1cncc([C@H](CCN2CCOCC2)OC(=O)[C@@H]2CCCCN2C(=O)C(=O)C(C)(C)C(C)C)c1)C(C)C [Compound 116] | 130 nM |
| CCC/C(=C/COC)c1cncc([C@@H](CCN2CCOCC2)OC(=O)[C@@H]2CCCCN2C(=O)C(=O)[C@@H]2CCCC[C@H]2C)c1 [Compound 117] | 150 nM |
| COC/C=C(\c1cncc([C@@H](CCN2CCOCC2)OC(=O)[C@@H]2CCCCN2C(=O)C(=O)[C@@H]2CCCC[C@H]2C)c1)C(C)C [Compound 118] | 70 nM |
| CCCCc1ccc(C)n1-c1cccc([C@@H](CCN2CCOCC2)OC(=O)[C@@H]2CCCCN2C(=O)C(=O)[C@@H]2CCCC[C@H]2C)c1 [Compound 120] | 80 nM |
| CCCCc1ccc(C)n1-c1cccc([C@@H](CCN2CCOCC2)OC(=O)[C@@H]2CCCCN2C(=O)C(=O)[C@@H]2C[C@H](OCC)CC[C@H]2C)c1 [Compound 121] | 85 nM |
| CCCCc1ccc(C)n1-c1cccc([C@@H](CCN2CCOCC2)OC(=O)[C@@H]2CCCCN2C(=O)C(=O)C(C)(C)C(C)C)c1 [Compound 122] | 32 nM |
| COC/C=C(\c1cncc([C@@H](CCN2CCOCC2)OC(=O)[C@@H]2CCCCN2C(=O)C(=O)[C@@H]2C[C@H](C(C)(C)OC)CC[C@H]2C)c1)C(C)C [Compound 124] | 1000 nM |
| CCC/C(=C/COC)c1cncc(C(CCN2CCOCC2)OC(=O)[C@@H]2CCCCN2C(=O)C(=O)[C@@H]2C[C@H](OCC)CC[C@H]2C)c1 (some centres unmarked) [Compound 125] | 1100 nM |
| CCCCc1ccc(C)n1-c1cccc([C@@H](CCN2CCOCC2)OC(=O)[C@@H]2CCCCN2C(=O)C(=O)[C@@H]2C[C@H](C(C)C)CC[C@H]2C)c1 [Compound 126] | 3000 nM |
| CCO[C@@H]1CC[C@@H](C)[C@H](C(=O)C(=O)N2CCCC[C@H]2C(=O)O[C@H](CCN2CCOCC2)c2cccc(-n3c(C)ccc3C)c2)C1 [Compound 127] | 19 nM |
| CCC/C=C(\c1cncc([C@@H](CCN2CCOCC2)OC(=O)[C@@H]2CCCCN2C(=O)C(=O)[C@@H]2CCCC[C@H]2C)c1)C(C)C [Compound 128] | 41 nM |
| CCC/C=C(\c1cncc([C@@H](CCN2CCOCC2)OC(=O)[C@@H]2CCCCN2C(=O)C(=O)[C@@H]2C[C@H](C(C)(C)OC)CC[C@H]2C)c1)C(C)C [Compound 129] | 1200 nM |
| CCC/C=C(\c1cncc([C@@H](CCN2CCOCC2)OC(=O)[C@@H]2CCCCN2C(=O)C(=O)[C@@H]2C[C@H](OCC)CC[C@H]2C)c1)C(C)C [Compound 130] | 490 nM |
| CCC/C(=C/COC)c1cncc(C(OC(=O)[C@@H]2CCCCN2C(=O)C(=O)[C@@H]2CCCC[C@H]2C)/C(C)=C/C2CCOCC2)c1 (some centres unmarked) [Compound 131] | 90 nM |
| CCC/C=C(\c1cncc([C@@H](CCN2CCOCC2)OC(=O)[C@@H]2CCCCN2C(=O)C(=O)[C@@H]2C[C@@H](OCC)CN2C(C)=O)c1)C(C)C [Compound 132] | > 10000 nM |
| CCC/C=C(/C)c1cncc([C@@H](CCN2CCOCC2)OC(=O)[C@@H]2CCCCN2C(=O)C(=O)[C@@H]2C[C@H](C(C)(C)OC)CC[C@H]2C)c1 [Compound 133] | 315 nM |
